38 compounds from ChEMBL document CHEMBL1139959, “Optimization of triaryl bis-sulfones as cannabinoid-2 receptor ligands” (Bioorg Med Chem Lett, 2007) can be followed below.

pKi: −log10 of the molar value.

The species named for one data set is Homo sapiens. Briefly: Selectivity for CB1 receptor over CB2 receptor.
For data set [1], the target named is Cannabinoid receptor 2 (Homo sapiens) (UniProt P34972). As to the kind of experiment: Binding affinity to CB2 receptor.
The next data set in a line: in vivo. Particulars: rat, plasma, po, 10 mg/kg.

Sequence of Cannabinoid receptor 2 (Homo sapiens) (P34972 whole entry, looked up): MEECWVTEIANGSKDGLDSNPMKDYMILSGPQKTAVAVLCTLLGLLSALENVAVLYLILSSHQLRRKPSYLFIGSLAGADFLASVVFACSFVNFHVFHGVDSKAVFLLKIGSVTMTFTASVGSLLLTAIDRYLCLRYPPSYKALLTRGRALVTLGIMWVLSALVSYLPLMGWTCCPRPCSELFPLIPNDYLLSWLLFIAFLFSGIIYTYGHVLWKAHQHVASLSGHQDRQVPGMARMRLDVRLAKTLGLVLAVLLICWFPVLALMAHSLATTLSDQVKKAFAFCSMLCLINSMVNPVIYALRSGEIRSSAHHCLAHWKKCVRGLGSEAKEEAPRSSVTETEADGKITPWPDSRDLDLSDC
Description for in vivo: AUC in rat at 10 mg/kg, po after 6 hrs

Take `C[C@H](NS(=O)(=O)C(F)(F)F)c1ccc(S(=O)(=O)c2ccc(O)cc2S(=O)(=O)c2ccccc2F)cc1`: the Ratio Ki in the data set filed under Homo sapiens was 1570.

`C[C@H](NS(=O)(=O)C(F)(F)F)c1ccc(S(=O)(=O)c2ccc(Cl)cc2S(=O)(=O)c2c(F)cccc2F)cc1` showed a pKi in data set [1] of 8.24. Besides, in the data set filed under Homo sapiens, the Ratio Ki is 642.

With `C[C@H](NS(C)(=O)=O)c1ccc(S(=O)(=O)c2ccc(Cl)cc2S(=O)(=O)c2cccc3cccnc23)cc1`, the Ratio Ki in the data set listed under Homo sapiens turned out to be 31.

The compound `CC(=O)N[C@@H](C)c1ccc(S(=O)(=O)c2ccc(Cl)cc2S(=O)(=O)c2ccccc2F)cc1` had a pKi in data set [1] of 7.22. In addition, the Ratio Ki in the data set filed under Homo sapiens was 250.

Consider `C[C@H](NS(=O)(=O)C(F)(F)F)c1ccc(S(=O)(=O)c2ccccc2S(=O)(=O)c2ccccc2F)cc1`, for which the Ratio Ki in the data set listed under Homo sapiens is 426.

For `C[C@H](NS(=O)(=O)C(F)(F)F)c1ccc(S(=O)(=O)c2ccc(Cl)cc2S(=O)(=O)c2ncccn2)cc1`, the negative logarithm of the Ki (pKi) in data set [1] is 7.68. In the data set listed under Homo sapiens, the Ratio Ki came out at 859.

For the compound `C[C@H](NS(=O)(=O)C(F)(F)F)c1ccc(S(=O)(=O)c2ccc(N3CCNCC3)cc2S(=O)(=O)c2ccccc2F)cc1`, in the data set filed under Homo sapiens, the Ratio Ki was 31.

As for `C[C@H](NCCC(F)(F)F)c1ccc(S(=O)(=O)c2ccc(Cl)cc2S(=O)(=O)c2ccccc2F)cc1`, the Ratio Ki in the data set filed under Homo sapiens amounted to 105.

In data set [1], `C[C@H](NS(C)(=O)=O)c1ccc(S(=O)(=O)c2ccc(Cl)cc2S(=O)(=O)C2CCCCC2)cc1` had a pKi of 8.05. In addition, in the data set listed under Homo sapiens, the Ratio Ki is 345.

Regarding `COCCOc1ccc(S(=O)(=O)c2ccc([C@H](C)NS(=O)(=O)C(F)(F)F)cc2)c(S(=O)(=O)c2ccccc2F)c1`, the pKi in data set [1] is 8.60. Besides, in the data set listed under Homo sapiens, the Ratio Ki was 1600.

Turning to `C[C@H](NS(=O)(=O)C(F)(F)F)c1ccc(S(=O)(=O)c2ccc(N)cc2S(=O)(=O)c2ccccc2F)cc1`, the Ratio Ki in the data set listed under Homo sapiens turned out to be 170.

`C[C@H](NS(=O)(=O)C(F)(F)F)c1ccc(S(=O)(=O)c2ccc(Cl)cc2S(=O)(=O)c2c(F)cccc2N(C)C)cc1` gave a negative logarithm of the Ki (pKi) in data set [1] of 6.94. In the data set listed under Homo sapiens, the Ratio Ki was found to be 60.

As for `C[C@H](N)c1ccc(S(=O)(=O)c2ccc(Cl)cc2S(=O)(=O)c2ccccc2F)cc1`, the Ratio Ki in the data set filed under Homo sapiens is 14.

In data set [1], `C[C@H](NS(=O)(=O)C(F)(F)F)c1ccc(S(=O)(=O)c2ccc(Cl)cc2S(=O)(=O)c2c(F)cccc2NC2CC2)cc1` gave a pKi of 7.84. For the same compound, in the data set listed under Homo sapiens, the Ratio Ki was 688.

Consider `CCOc1ccc(S(=O)(=O)c2ccc([C@H](C)NS(=O)(=O)C(F)(F)F)cc2)c(S(=O)(=O)c2ccccc2F)c1`, for which the pKi in data set [1] is 9.05. Further, the Ratio Ki in the data set filed under Homo sapiens stood at 1960.

As for `Cc1occc1S(=O)(=O)c1cc(Cl)ccc1S(=O)(=O)c1ccc([C@H](C)NS(C)(=O)=O)cc1`, the negative logarithm of the Ki (pKi) in data set [1] is 6.89. Also, the Ratio Ki in the data set listed under Homo sapiens is 538.

With `C[C@H](NS(=O)(=O)C(F)(F)F)c1ccc(S(=O)(=O)c2ccc(OC(F)(F)F)cc2S(=O)(=O)c2ccccc2F)cc1`, in the data set filed under Homo sapiens, the Ratio Ki worked out at 525.

For the compound `CNS(=O)(=O)c1cc(Cl)ccc1S(=O)(=O)c1ccc([C@H](C)NS(C)(=O)=O)cc1`, the Ratio Ki in the data set listed under Homo sapiens came to 64.

For `CCCS(=O)(=O)c1cc(Cl)ccc1S(=O)(=O)c1ccc([C@H](C)NS(C)(=O)=O)cc1`, the Ratio Ki in the data set listed under Homo sapiens stood at 57.

As to `C[C@H](NS(=O)(=O)C(F)(F)F)c1ccc(S(=O)(=O)c2ccc(Cl)cc2S(=O)(=O)c2c(F)cccc2N2CCOCC2)cc1`, the Ratio Ki in the data set listed under Homo sapiens came to 18.

The compound `C[C@H](NS(C)(=O)=O)c1ccc(S(=O)(=O)c2ccc(Cl)cc2S(=O)(=O)NS(C)(=O)=O)cc1` had a pKi in data set [1] of 5.56. Besides, the Ratio Ki in the data set filed under Homo sapiens was determined as 36.

For the compound `C[C@H](NS(C)(=O)=O)c1ccc(S(=O)(=O)c2ccc(Cl)cc2S(=O)(=O)c2cccc[n+]2[O-])cc1`, the Ratio Ki in the data set listed under Homo sapiens is 840.

Take `C[C@H](NS(C)(=O)=O)c1ccc(S(=O)(=O)c2ccc(Cl)cc2S(=O)(=O)N(C)C)cc1`: the Ratio Ki in the data set listed under Homo sapiens was 58.

In the case of `C[C@H](NS(C)(=O)=O)c1ccc(S(=O)(=O)c2ccc(Cl)cc2S(=O)(=O)c2ccccn2)cc1`, the Ratio Ki in the data set filed under Homo sapiens amounted to 4400.

`C[C@H](NS(=O)(=O)C(F)(F)F)c1ccc(S(=O)(=O)c2ccc(NC3CC3)cc2S(=O)(=O)c2ccccc2F)cc1` had a pKi in data set [1] of 8.31. Moreover, the Ratio Ki in the data set listed under Homo sapiens was 66.

For the compound `C[C@H](NS(=O)(=O)C(F)(F)F)c1ccc(S(=O)(=O)c2ccc(Cl)cc2S(=O)(=O)c2ccccn2)cc1`, the negative-log Ki (pKi) in data set [1] is 8.44. Moreover, the Ratio Ki in the data set listed under Homo sapiens is 1150.

In the case of `C[C@H](NS(=O)(=O)C(F)(F)F)c1ccc(S(=O)(=O)c2ccc(Cl)cc2S(=O)(=O)c2c(N)cccc2F)cc1`, in the data set listed under Homo sapiens, the Ratio Ki was 1190.

In the case of `C[C@H](NS(=O)(=O)C(F)(F)F)c1ccc(S(=O)(=O)c2ccc(Cl)cc2S(=O)(=O)N2CCCCC2)cc1`, in data set [1], the negative logarithm of the Ki (pKi) is 7.24. For the same compound, in the data set listed under Homo sapiens, the Ratio Ki is 231.

In turn, `Cc1ccc(S(=O)(=O)c2ccc([C@H](C)NS(=O)(=O)C(F)(F)F)cc2)c(S(=O)(=O)c2ccccc2F)c1` had a pKi in data set [1] of 8.96. Moreover, in the data set filed under Homo sapiens, the Ratio Ki worked out at 2290.

Regarding `C[C@H](NS(=O)(=O)C(F)(F)F)c1ccc(S(=O)(=O)c2ccc(Cl)cc2S(=O)(=O)N2CCOCC2)cc1`, the pKi in data set [1] is 6.72. Moreover, the Ratio Ki in the data set filed under Homo sapiens was determined as 99.

On to `C[C@H](NCC(F)(F)F)c1ccc(S(=O)(=O)c2ccc(Cl)cc2S(=O)(=O)c2ccccc2F)cc1`, for which the Ratio Ki in the data set listed under Homo sapiens stood at 325.

On to `CCNC(=O)N[C@@H](C)c1ccc(S(=O)(=O)c2ccc(Cl)cc2S(=O)(=O)c2ccccc2F)cc1`, for which the negative-log Ki (pKi) in data set [1] is less than 5.00.

Turning to `C[C@H](NS(=O)(=O)C(F)(F)F)c1ccc(S(=O)(=O)c2ccc(C(F)(F)F)cc2S(=O)(=O)c2ccccc2F)cc1`, the Ratio Ki in the data set listed under Homo sapiens was determined as 2080.

`C[C@H](NS(=O)(=O)C(F)(F)F)c1ccc(S(=O)(=O)c2ccc(C3CC3)cc2S(=O)(=O)c2ccccc2F)cc1` gave a pKi in data set [1] of 8.85. The Ratio Ki in the data set listed under Homo sapiens was 2240.

`C[C@H](NS(=O)(=O)C(F)(F)F)c1ccc(S(=O)(=O)c2ccc(Cl)cc2S(=O)(=O)NC(C)(C)C)cc1`: the negative logarithm of the Ki (pKi) in data set [1] was 6.87. Moreover, the Ratio Ki in the data set filed under Homo sapiens was found to be 123.

In the case of `C[C@H](NS(C)(=O)=O)c1ccc(S(=O)(=O)c2ccc(Cl)cc2S(=O)(=O)c2ccccc2F)cc1`, the Ratio Ki in the data set listed under Homo sapiens worked out at 4390. For the same compound, in the data set “in vivo”, the area under the curve (AUC) at 6 h turned out to be 6.33 µM·h.

As for `C[C@H](NC(=O)C(F)(F)F)c1ccc(S(=O)(=O)c2ccc(Cl)cc2S(=O)(=O)c2ccccc2F)cc1`, in the data set filed under Homo sapiens, the Ratio Ki was found to be 784.

With `CNc1cccc(F)c1S(=O)(=O)c1cc(Cl)ccc1S(=O)(=O)c1ccc([C@H](C)NS(=O)(=O)C(F)(F)F)cc1`, the Ratio Ki in the data set filed under Homo sapiens was determined as 212.
